Test results from ChEMBL document CHEMBL4665713, “Synthesis and biological evaluation of novel quinazoline-triazole hybrid compounds with potential use in Alzheimer's disease” (Bioorg Med Chem Lett, 2020).

Tests used:
Acetylcholinesterase [1] = biological target: Acetylcholinesterase (Electrophorus electricus, UniProt O42275); experiment: Inhibition of electric eel AChE using acetylthiocholine iodide as substrate preincubated with enzyme for 10 mins prior to substrate addition and measured for 6 mins by Ellman's method
Acetylcholinesterase [2] = biological target: T1, Acetylcholinesterase (Rattus norvegicus, UniProt P37136); experiment: Inhibition of AChE in rat brain using acetylthiocholine iodide as substrate by Ellman's UV-vis spectrophotometric method; type: tissue-based
T1 sequence (P37136 whole entry): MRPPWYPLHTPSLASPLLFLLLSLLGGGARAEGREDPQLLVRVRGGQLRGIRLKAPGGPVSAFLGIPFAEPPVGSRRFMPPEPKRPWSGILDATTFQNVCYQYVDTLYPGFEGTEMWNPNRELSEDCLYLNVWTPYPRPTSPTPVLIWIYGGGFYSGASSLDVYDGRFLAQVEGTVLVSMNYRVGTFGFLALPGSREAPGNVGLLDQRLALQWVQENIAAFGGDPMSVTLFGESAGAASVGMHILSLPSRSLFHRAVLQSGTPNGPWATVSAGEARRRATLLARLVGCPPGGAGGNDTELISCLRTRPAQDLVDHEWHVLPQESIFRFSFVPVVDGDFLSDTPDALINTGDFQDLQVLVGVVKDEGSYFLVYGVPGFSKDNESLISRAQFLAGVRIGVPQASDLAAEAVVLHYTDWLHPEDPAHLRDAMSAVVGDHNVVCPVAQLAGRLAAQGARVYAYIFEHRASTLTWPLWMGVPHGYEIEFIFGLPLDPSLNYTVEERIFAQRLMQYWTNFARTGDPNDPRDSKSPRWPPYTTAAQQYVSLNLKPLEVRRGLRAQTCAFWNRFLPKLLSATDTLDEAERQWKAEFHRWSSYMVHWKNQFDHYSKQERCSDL

[3] = Cytotoxicity against human KB-CCL-17 cells assessed as reduction in cell viability by MTT assay; type: functional, cell-based
[4] = Cytotoxicity against human Lu1 cells assessed as reduction in cell viability by MTT assay; type: functional, cell-based
HepG2 = experiment: Cytotoxicity against human HepG2 cells assessed as reduction in cell viability by MTT assay; type: functional, cell-based

Sequence of Acetylcholinesterase (Electrophorus electricus, UniProt O42275) (O42275 whole entry): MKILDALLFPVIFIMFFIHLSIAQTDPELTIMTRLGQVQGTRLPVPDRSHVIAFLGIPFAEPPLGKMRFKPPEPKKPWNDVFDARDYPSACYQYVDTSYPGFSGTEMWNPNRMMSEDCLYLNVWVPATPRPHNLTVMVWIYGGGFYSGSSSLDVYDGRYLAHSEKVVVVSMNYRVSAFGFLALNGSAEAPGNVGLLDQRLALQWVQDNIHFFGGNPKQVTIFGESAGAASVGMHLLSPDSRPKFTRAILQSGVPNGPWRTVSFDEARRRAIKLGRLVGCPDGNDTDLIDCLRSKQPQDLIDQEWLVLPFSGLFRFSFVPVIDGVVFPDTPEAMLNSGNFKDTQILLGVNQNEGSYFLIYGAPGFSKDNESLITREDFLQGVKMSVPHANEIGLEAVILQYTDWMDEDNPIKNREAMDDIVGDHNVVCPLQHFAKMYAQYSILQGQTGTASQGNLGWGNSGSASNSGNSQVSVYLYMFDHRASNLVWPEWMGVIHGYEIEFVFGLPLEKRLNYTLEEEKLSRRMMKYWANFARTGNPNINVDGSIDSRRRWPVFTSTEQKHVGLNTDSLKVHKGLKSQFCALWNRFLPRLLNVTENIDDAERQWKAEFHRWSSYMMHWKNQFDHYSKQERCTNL

Compound | IC50 (Acetylcholinesterase [1]) | IC50 (Acetylcholinesterase [2]) | IC50 [3] | IC50 [4] | IC50 (HepG2)
Cc1ccc(Cn2cc(Oc3ccc4cc(C(=O)NC5CCN(Cc6ccccc6)CC5)c(=O)oc4c3)nn2)cc1C | 1.8 µM |  |  |  | 
C#CCOc1ccc2ncnc(NCc3ccccc3)c2c1 |  | 47.7 µM | 59.7 µM | > 200 µM | > 200 µM
C#CCOc1ccc2ncnc(N3CCN(C)CC3)c2c1 |  | 83.9 µM | > 200 µM | > 200 µM | > 200 µM
O=[N+]([O-])c1cccc(-n2cc(COc3ccc4ncnc(NCc5ccccc5)c4c3)nn2)c1 |  | 1.1 µM | > 200 µM | > 200 µM | 94.1 µM
CN1CCN(c2ncnc3ccc(OCc4cn(-c5cccc([N+](=O)[O-])c5)nn4)cc23)CC1 |  | 15.8 µM | > 200 µM | > 200 µM | > 200 µM
CN1CCN(c2ncnc3ccc(OCc4cn(-c5ccccc5[N+](=O)[O-])nn4)cc23)CC1 |  | 37.4 µM | > 200 µM | > 200 µM | 142 µM
O=[N+]([O-])c1ccc(-n2cc(COc3ccc4ncnc(Nc5cccc([N+](=O)[O-])c5)c4c3)nn2)cc1 |  | > 200 µM |  |  | 
C#CCOc1ccc2ncnc(Nc3cccc([N+](=O)[O-])c3)c2c1 |  | > 200 µM |  |  | 
N#Cc1cc(-n2cc(COc3ccc4ncnc(NCc5ccccc5)c4c3)nn2)ccc1C(F)(F)F |  | > 200 µM |  |  | 
O=[N+]([O-])c1ccc(-n2cc(COc3ccc4ncnc(NCc5ccccc5)c4c3)nn2)cc1 |  | > 200 µM |  |  | 
O=[N+]([O-])c1ccccc1-n1cc(COc2ccc3ncnc(NCc4ccccc4)c3c2)nn1 |  | 0.23 µM | 42.7 µM | > 200 µM | > 200 µM
O=[N+]([O-])c1cccc(Nc2ncnc3ccc(OCc4cn(-c5cccc([N+](=O)[O-])c5)nn4)cc23)c1 |  | > 200 µM |  |  | 
N#Cc1cc(-n2cc(COc3ccc4ncnc(Nc5cccc([N+](=O)[O-])c5)c4c3)nn2)ccc1C(F)(F)F |  | > 200 µM |  |  | 
CN1CCN(c2ncnc3ccc(OCc4cn(-c5ccc([N+](=O)[O-])cc5)nn4)cc23)CC1 |  | > 200 µM |  |  | 
CN1CCN(c2ncnc3ccc(OCc4cn(-c5ccc(C(F)(F)F)c(C#N)c5)nn4)cc23)CC1 |  | > 200 µM |  |  | 
O=[N+]([O-])c1cccc(Nc2ncnc3ccc(OCc4cn(-c5ccccc5[N+](=O)[O-])nn4)cc23)c1 |  | 2.06 µM | > 200 µM | > 200 µM | > 200 µM
Cc1c2ccncc2c(C)c2c1[nH]c1ccccc12 [ELLIPTECINE] |  |  | 1.1 µM | 1.3 µM | 0.85 µM
